Drawing on ChEMBL document CHEMBL1149752, “Antitumor agents, 135. Structure and stereochemistry of polacandrin, a new cytotoxic triterpene from Polanisia dodecandra” (1992), this text covers EC50 for 1 molecule.

Type in all cases: functional
Conditions in all cases: read-out: ED50 (the source's name)

One experiment has as its system KB. As to the kind of experiment: Cytotoxicity against human KB cells.
In a further experiment the test system is P388. In words: Cytotoxicity against mouse P388 cells.
The subject of another experiment is RPMI-7951. As to the kind of experiment: Cytotoxicity against human RPMI7951 cells.
A further experiment has as its system HCT-8. In words: Cytotoxicity against human HCT8 cells.

In brackets after ≈: the same amount, converted by molar mass.

Turning to `CC(C)(O)[C@@H]1CC[C@@](C)([C@H]2CC[C@]3(C)[C@@H]2[C@H](O)C[C@@H]2[C@@]4(C)[C@H](O)C[C@@H](O)C(C)(C)[C@@H]4CC[C@]23C)O1` [POLACANDRIN], the EC50 in the experiment on KB worked out at 0.6 µg/mL (≈ 1.22 µM); in the experiment with P388, 0.9 µg/mL (≈ 1.83 µM); in the experiment on RPMI-7951 it was 0.62 µg/mL (≈ 1.26 µM); in the experiment on HCT-8, 6.06 µg/mL (≈ 12.3 µM).
